According to patent US10766869B2, “Triazoles for the treatment of demyelinating dieases” (Vertex Pharmaceuticals Incorporated, priority 2015, dated 2020):

Tested on: primary rat mixed cortical cells
Assay: In vitro myelination assay (MBP positive myelin strands, fold myelin pixels above background)
Format: cell-based
Details: Rattus norvegicus, relative to baseline of no added compound, read-out: Fold myelin pixels above background; for fold induction at 1 µM: 1.0 μM compound; for fold induction at 10 µM: 10.0 μM compound
Method in brief: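 Fourteen-day treatment of primary P1 rat mixed cortical cultures, re-dosed at days 6 and 10, at 1.0 μM and 10.0 μM. MBP immunofluorescence was imaged at 10× and myelin strands quantified by software, normalised to untreated wells as fold above background.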

Row | Compound | fold induction at 1 µM | fold induction at 10 µM
1 | CC(F)(F)c1cc(Nc2ncn(-c3cc(F)cc(F)c3)n2)nc(N2CCN(C3COC3)CC2)c1 [Compound 685, 4-(1,1-difluoroethyl)-N-[1-(3,5-difluorophenyl)-1,2,4-triazol-3-yl]-6-[4-(oxetan-3-yl)piperazin-1-yl]pyridin-2-amine] | 10 to 100 | 1 to 10
2 | Fc1cc(Nc2ncn(-c3cc(F)cc(F)c3)n2)cc(NC2COC2)c1 [Compound 686, N3-[1-(3,5-difluorophenyl)-1,2,4-triazol-3-yl]-5-fluoro-N1-(oxetan-3-yl)benzene-1,3-diamine] | 1 to 10 | 1 to 10
3 | Cc1cc(Nc2ncn(-c3ccc(C#N)cc3)n2)cc(N2CCN(C3COC3)CC2)c1 [Compound 687, 4-[3-[3-methyl-5-[4-(oxetan-3-yl)piperazin-1-yl]anilino]-1,2,4-triazol-1-yl]benzonitrile] | 1 to 10 | 1 to 10
4 | Cc1cc(Nc2ncn(-c3cc(F)cc(F)c3)n2)c(F)c(N2CC3(CNC3)C2)c1 [Compound 688, N-[3-(2,6-diazaspiro[3.3]heptan-2-yl)-2-fluoro-5-methyl-phenyl]-1-(3,5-difluorophenyl)-1,2,4-triazol-3-amine] | 1 to 10 | ≤ 1
5 | Cc1cc(Nc2ncn(-c3cccc(C(F)F)c3)n2)nc(NC2CCOC2)c1 (stereo not drawn) [Compound 689, N6-[1-[3-(difluoromethyl)phenyl]-1,2,4-triazol-3-yl]-4-methyl-N2-tetrahydrofuran-3-yl-pyridine-2,6-diamine] | 1 to 10 | 1 to 10
6 | Cc1cc(Nc2ncn(-c3cc(F)cc(F)c3)n2)cc(N2CC(C(=O)N3CCOCC3)C2)c1 [Compound 690, [1-[3-[[1-(3,5-difluorophenyl)-1,2,4-triazol-3-yl]amino]-5-methyl-phenyl]azetidin-3-yl]-morpholino-methanone] | 1 to 10 | 10 to 100
7 | Cc1cc(Nc2ncn(-c3cc(F)cc(F)c3)n2)cc(N2CC3CCC(C2)O3)c1 [Compound 692, 1-(3,5-difluorophenyl)-N-[3-methyl-5-(8-oxa-3-azabicyclo[3.2.1]octan-3-yl)phenyl]-1,2,4-triazol-3-amine] | 10 to 100 | 10 to 100
8 | COc1cc(Nc2ncn(-c3cccc(C(F)F)c3)n2)cc(N2CCN(C3COC3)CC2)c1 [Compound 693, 1-[3-(difluoromethyl)phenyl]-N-[3-methoxy-5-[4-(oxetan-3-yl)piperazin-1-yl]phenyl]-1,2,4-triazol-3-amine] | 1 to 10 | ≤ 1
9 | Cc1cc(Nc2ncn(-c3cc(F)cc(F)c3)n2)cc(N2C3COCC2C3)c1 [Compound 694, 1-(3,5-difluorophenyl)-N-[3-methyl-5-(3-oxa-6-azabicyclo[3.1.1]heptan-6-yl)phenyl]-1,2,4-triazol-3-amine] | 10 to 100 | ≤ 1
10 | Cc1cc(Nc2ncn(-c3ccc(F)cc3)n2)cc(N2CCN(C3(C)COC3)CC2)c1 [Compound 695, 1-(4-fluorophenyl)-N-[3-methyl-5-[4-(3-methyloxetan-3-yl)piperazin-1-yl]phenyl]-1,2,4-triazol-3-amine] | 1 to 10 | 1 to 10
11 | Cc1cc(Nc2ncn(-c3cc(F)cc(F)c3)n2)c(C)c(N2CCN(C3COC3)CC2)c1 [Compound 697, 1-(3,5-difluorophenyl)-N-[2,5-dimethyl-3-[4-(oxetan-3-yl)piperazin-1-yl]phenyl]-1,2,4-triazol-3-amine] | 1 to 10 | 10 to 100
12 | Cc1cc(Nc2ncn(-c3ccc(F)c(F)c3)n2)cc(OCCn2cccn2)c1 [Compound 698, 1-(3,4-difluorophenyl)-N-[3-methyl-5-(2-pyrazol-1-ylethoxy)phenyl]-1,2,4-triazol-3-amine] | 10 to 100 | 10 to 100
13 | Cc1cc(Nc2cc(C)[nH]n2)cc(Nc2ncn(-c3ccccc3)n2)c1 [Compound 699, 5-methyl-N3-(5-methyl-1H-pyrazol-3-yl)-N1-(1-phenyl-1,2,4-triazol-3-yl)benzene-1,3-diamine] | 1 to 10 | ≤ 1
14 | Fc1cc(F)cc(-n2cnc(Nc3cc(N4CCN(C5COC5)CC4)cc(N4CC(N5CCOCC5)C4)c3)n2)c1 [Compound 701, 1-(3,5-difluorophenyl)-N-[3-(3-morpholinoazetidin-1-yl)-5-[4-(oxetan-3-yl)piperazin-1-yl]phenyl]-1,2,4-triazol-3-amine] | 10 to 100 | ≤ 1
15 | Cc1cc(Nc2ncn(-c3cc(F)cc(F)c3)n2)nc(N2CCN(C(C)(C)C)CC2)c1 [Compound 702, 6-(4-tert-butylpiperazin-1-yl)-N-[1-(3,5-difluorophenyl)-1,2,4-triazol-3-yl]-4-methyl-pyridin-2-amine] | 10 to 100 | 10 to 100
16 | Cc1cc(Nc2ncn(-c3cc(F)cc(F)c3)n2)cc(OC2CCOC2)c1 (stereo not drawn) [Compound 703, 1-(3,5-difluorophenyl)-N-(3-methyl-5-tetrahydrofuran-3-yloxy-phenyl)-1,2,4-triazol-3-amine] | 10 to 100 | 1 to 10
17 | Cc1cc(Nc2ncn(-c3ccccc3)n2)cc(N2CC(N3CCOCC3)C2)c1 [Compound 704, N-[3-methyl-5-(3-morpholinoazetidin-1-yl)phenyl]-1-phenyl-1,2,4-triazol-3-amine] | 10 to 100 | ≤ 1
18 | Fc1cc(F)cc(-n2cnc(Nc3cc(Cl)cc(NC4COC4)c3)n2)c1 [Compound 705, 5-chloro-N3-[1-(3,5-difluorophenyl)-1,2,4-triazol-3-yl]-N1-(oxetan-3-yl)benzene-1,3-diamine] | 10 to 100 | 1 to 10
19 | Cc1cc(Nc2ncn(-c3cc(F)cc(F)c3)n2)cc(OCC2CC(F)(F)C2)c1 [Compound 706, N-[3-[(3,3-difluorocyclobutyl)methoxy]-5-methyl-phenyl]-1-(3,5-difluorophenyl)-1,2,4-triazol-3-amine] | 1 to 10 | 1 to 10
20 | N#Cc1cc(N2CCN(C3COC3)CC2)cc(Nc2ncn(-c3cc(F)cc(F)c3)n2)n1 [Compound 707, 6-[[1-(3,5-difluorophenyl)-1,2,4-triazol-3-yl]amino]-4-[4-(oxetan-3-yl)piperazin-1-yl]pyridine-2-carbonitrile] | ≤ 1 | ≤ 1
21 | Cc1cc(Nc2ncn(-c3cc(F)cc(F)c3)n2)cc(C2(C)CN(C3COC3)CCO2)c1 (stereo not drawn) [Compound 708, 1-(3,5-difluorophenyl)-N-[3-methyl-5-[2-methyl-4-(oxetan-3-yl)morpholin-2-yl]phenyl]-1,2,4-triazol-3-amine] | 1 to 10 | ≤ 1
22 | Cc1cc(Nc2ncn(-c3cc(F)cc(F)c3)n2)cc(N2CCN(C(C)(C)C)CC2)c1 [Compound 709, N-[3-(4-tert-butylpiperazin-1-yl)-5-methyl-phenyl]-1-(3,5-difluorophenyl)-1,2,4-triazol-3-amine] | 1 to 10 | 1 to 10
23 | COc1ccc(-n2cnc(Nc3cc(C)cc(N4CCN(C5COC5)CC4)c3)n2)cc1 [Compound 710, 1-(4-methoxyphenyl)-N-[3-methyl-5-[4-(oxetan-3-yl)piperazin-1-yl]phenyl]-1,2,4-triazol-3-amine] | 10 to 100 | ≤ 1
24 | Cc1cc(Nc2ncn(-c3cc(F)cc(F)c3)n2)cc(N2CC(C(=O)N(C)C)C2)c1 [Compound 711, 1-[3-[[1-(3,5-difluorophenyl)-1,2,4-triazol-3-yl]amino]-5-methyl-phenyl]-N,N-dimethyl-azetidine-3-carboxamide] | 10 to 100 | 1 to 10
25 | FC(F)(F)c1cc(Nc2ncn(-c3cnccn3)n2)nc(N2CCN(C3COC3)CC2)c1 [Compound 712, 6-[4-(oxetan-3-yl)piperazin-1-yl]-N-(1-pyrazin-2-yl-1,2,4-triazol-3-yl)-4-(trifluoromethyl)pyridin-2-amine] | 1 to 10 | 1 to 10
26 | OCc1cc(Nc2ncn(-c3ccc(F)c(F)c3)n2)nc(N2CCN(C3COC3)CC2)c1 [Compound 713, [2-[[1-(3,4-difluorophenyl)-1,2,4-triazol-3-yl]amino]-6-[4-(oxetan-3-yl)piperazin-1-yl]-4-pyridyl]methanol] | 10 to 100 | 10 to 100
27 | Cc1cc(Nc2ncn(-c3ccc(F)c(F)c3)n2)cc(OCc2ccn(C)n2)c1 [Compound 714, 1-(3,4-difluorophenyl)-N-[3-methyl-5-[(1-methylpyrazol-3-yl)methoxy]phenyl]-1,2,4-triazol-3-amine] | 10 to 100 | 10 to 100
28 | CCc1cc(Nc2ncn(-c3ccc(C)c(Cl)c3)n2)cc(N2CCN(C3COC3)CC2)c1 [Compound 715, 1-(3-chloro-4-methyl-phenyl)-N-[3-ethyl-5-[4-(oxetan-3-yl)piperazin-1-yl]phenyl]-1,2,4-triazol-3-amine] | 10 to 100 | 1 to 10
29 | CC1(N2CCN(c3cc(C(F)F)cc(Nc4ncn(-c5cc(F)cc(F)c5)n4)n3)CC2)COC1 [Compound 716, 4-(difluoromethyl)-N-[1-(3,5-difluorophenyl)-1,2,4-triazol-3-yl]-6-[4-(3-methyloxetan-3-yl)piperazin-1-yl]pyridin-2-amine] | 1 to 10 | 100 to 1000
30 | Cc1cc(Nc2ncn(-c3cc(F)cc(F)c3)n2)cc(N2CC(N3CC4CCC(C3)O4)C2)c1 [Compound 717, 1-(3,5-difluorophenyl)-N-[3-methyl-5-[3-(8-oxa-3-azabicyclo[3.2.1]octan-3-yl)azetidin-1-yl]phenyl]-1,2,4-triazol-3-amine] | 1 to 10 | 10 to 100
